# Measurements: US11660270B2, “Nanoparticle compositions” (Indiana University Research and Technology Corporation, priority 2017, dated 2023)
# How the values were obtained:
# [1] = Solvent screening for dissolving drugs and polymers; assay type: physicochemical; settings: added to 1 ml of test solvent, vortex; smallest amount of solvent for immediate solubilization
# Method: The following solvents were compared for use as drug solvents in nanoprecipitation: acetone, ethanol, tetrahydrofuran (THF), acetic acid, acetonitrile, dimethylsulfoxide (DMSO), dimethylformamide (DMF), N-methylpyrrolidone (NMP), methanol, n-propanol and isopropanol.
# Chloroform, dichloromethane (DCM), ethanol, acetone, methanol and ethyl acetate were tested as polymer solvents.
# Drugs (thyrotropin-releasing hormone (TRH), oxytocin, and luteinizing hormone-releasing hormone (LHRH)) and polymers (polysebacic acid, and PLGA (poly(lactide-co-glycolide)) with either a 1:1 or 3:1 molar ratio of lactide to glycolide) were added to 1 ml of test solvent and stirred vigorously by vortex.
# [2] = in vivo; cited from earlier work
Molecule,best solvent for dissolving [1],plasma half-life [2]
CC[C@H](C)[C@@H]1NC(=O)[C@H](Cc2ccc(O)cc2)NC(=O)[C@@H](N)CSSC[C@@H](C(=O)N2CCC[C@H]2C(=O)N[C@@H](CC(C)C)C(=O)NCC(N)=O)NC(=O)[C@H](CC(N)=O)NC(=O)[C@H](CCC(N)=O)NC1=O [oxytocin],acetic acid,–
luteinizing hormone-releasing hormone [LHRH],acetic acid,–
"NC(=O)[C@@H]1CCCN1C(=O)[C@H](Cc1cnc[nH]1)NC(=O)[C@@H]1CCC(=O)N1 [TRH, pyroglutamyl-histidyl-proline-amide]",Ethanol,about 8 minutes
